# Results from article PMC7031696 (Cell chemical biology, 2019).
# “Also recorded” adds a separate entry of the source. Like-named read-outs stand apart in the source and are kept apart here.
# Assays:
# [1] = test system: Plasmodium falciparum 3D7-A10 parasites; assay: Stage specificity assay (8-h exposure of synchronized stages, IC50^8h); assay type: cell-based; settings: for IC50: Plasmodium falciparum
# [2] = test system: asynchronous 3D7-A10 parasite cultures; assay: Standard 72-h exposure asexual blood stage susceptibility assay (IC50^72h); assay type: cell-based, Plasmodium falciparum; settings: Plasmodium falciparum, 3D7, 72 h, read-out: Overall (72hr assay) Mean IC50 (IC50^72h)
# physchem = settings: pH 7.4, aqueous buffer, kinetic from dmso stock
# [3] = test system: 3D7-MR4 trophozoite parasite-infected RBCs; assay: Metabolomic profiling (hydrophilic metabolite changes, UHPLC-MS); assay type: cell-based, Plasmodium falciparum
# [4] = test system: 3D7-MR4 trophozoite parasite-infected RBCs; settings: 10 × IC50^72h; ref Allman et al., 2016; cited from earlier work
# [5] = 3D7, read-out: Early rings Mean IC50 (IC50^8h), 8-h exposure 0–8 hr, 3D7-A10, survival at 60 h
# [6] = 3D7, read-out: Early trophozoites Mean IC50 (IC50^8h), 8-h exposure 16–24 hr, 3D7-A10, survival at 60 h
# [7] = 3D7, read-out: Late rings Mean IC50 (IC50^8h), 8-h exposure 8–16 hr, 3D7-A10, survival at 60 h
# [8] = 3D7, read-out: Late trophozoites Mean IC50 (IC50^8h), 8-h exposure 24–32 hr, 3D7-A10, survival at 60 h
# [9] = 3D7, read-out: Schizonts Mean IC50 (IC50^8h), 8-h exposure 32–40 hr, 3D7-A10, survival at 60 h
smiles,measurement,setting,value
"C[C@H]1[C@@H](O)O[C@@H]2O[C@@]3(C)CC[C@H]4[C@H](C)CC[C@@H]1[C@@]24OO3 [Dihydroartemisinin, reference compound]",overall activity profile (stages on which active),[1]; 8-h exposures,activity on all stages
same,IC50,[1]; [5],1.5 nM
same,IC50,[1]; [6],2.4 nM
same,IC50,[1]; [7],2.4 nM
same,IC50,[1]; [8],3.9 nM
same,IC50,[1]; [9],11.6 nM
same,Stage of peak activity (Figure 6),[1]; period when the parasite was most susceptible (lowest IC50^8h),ring and trophozoite stages; also recorded: rings and trophozoites
same,IC50,[2],1 nM
same,solubility at 1.5 h,physchem,≥ 500 µM
COCCNCC(O)Cn1c2ccc(Cl)cc2c2cc(Cl)ccc21 (stereo not shown) [MMV019017],Ratio lowest IC50 8hr/IC50 72hr,[1]; 3D7-A10,4.4
same,IC50,"[1]; 3D7, 8 h, read-out: IC50^8h values at all tested stages, 8-h exposures, all asexual blood stages",> 1000 nM
same,IC50,[1]; [5],8420 nM
same,IC50,[1]; [6],1340 nM
same,IC50,[1]; [7],8660 nM
same,IC50,[1]; [8],1710 nM
same,IC50,[1]; [9],3060 nM
same,IC50,[2],306 nM
same,Log2(fold changes) 3-phosphoglycerate,"[3]; metabolite 3-phosphoglycerate, log2 fold change",-0.1375
same,Log2(fold changes) 4-Pyridoxic acid,"[3]; metabolite 4-Pyridoxic acid, log2 fold change",0.0658
same,Log2(fold changes) 4-aminobutyrate,"[3]; metabolite 4-aminobutyrate, log2 fold change",1.1150
same,Log2(fold changes) 4-phosphopantetheine,"[3]; metabolite 4-phosphopantetheine, log2 fold change",0.0000
same,Log2(fold changes) 4-phosphopantothenate,"[3]; metabolite 4-phosphopantothenate, log2 fold change",-1.0497
same,Log2(fold changes) 5-aminopentanoic acid,"[3]; metabolite 5-aminopentanoic acid, log2 fold change",0.0000
same,Log2(fold changes) 5-methyl-THF,"[3]; metabolite 5-methyl-THF, log2 fold change",0.0000
same,Log2(fold changes) 5-phosphoribosyl-1-pyrophosphate,"[3]; metabolite 5-phosphoribosyl-1-pyrophosphate, log2 fold change",-1.1636
same,Log2(fold changes) 6-phospho-D-gluconate,"[3]; metabolite 6-phospho-D-gluconate, log2 fold change",-0.4356
same,Log2(fold change) HVDD,[3]; metabolite HVDD,0.0000
same,Log2(fold change) Hydroxyisocaproic acid,[3]; metabolite Hydroxyisocaproic acid,0.0000
same,Log2(fold change) IDP,[3]; metabolite IDP,0.0000
same,Log2(fold change) IMP,[3]; metabolite IMP,0.0176
same,Log2(fold change) Inositol,[3]; metabolite Inositol,0.0000
same,Log2(fold change) Isopentyl-PP,[3]; metabolite Isopentyl-PP,0.0000
same,Log2(fold change) L-arginino-succinate,[3]; metabolite L-arginino-succinate,0.0000
same,Log2(fold change) LD,[3]; metabolite LD,-2.3846
same,Log2(fold change) Myristoyl/tetradecanoyl-CoA,[3]; metabolite Myristoyl/tetradecanoyl-CoA,0.0000
same,Log2(fold change) N-Acetyl-L-alanine,[3]; metabolite N-Acetyl-L-alanine,-0.1766
same,Log2(fold change) N-acetyl-L-ornithine,[3]; metabolite N-acetyl-L-ornithine,-1.7936
same,Log2(fold change) N-acetyl-glucosamine-1/6-phosphate,[3]; metabolite N-acetyl-glucosamine-1/6-phosphate,-1.5222
same,Log2(fold change) N-acetyl-glutamate,[3]; metabolite N-acetyl-glutamate,0.3951
same,Log2(fold change) N-acetyl-glutamine,[3]; metabolite N-acetyl-glutamine,0.6689
same,Log2(fold change) N-carbamoyl-L-aspartate,[3]; metabolite N-carbamoyl-L-aspartate,-1.9472
same,Log2(fold change) NAD+,[3]; metabolite NAD+,-0.1399
same,Log2(fold change) NADH,[3]; metabolite NADH,0.8540
same,Log2(fold change) NADP+,[3]; metabolite NADP+,0.2168
same,Log2(fold change) NADPH,[3]; metabolite NADPH,0.4083
same,Log2(fold change) O-acetyl-L-serine,[3]; metabolite O-acetyl-L-serine,0.0000
same,Log2(fold change) Octoluse 8/1P,[3]; metabolite Octoluse 8/1P,-0.2135
same,Log2(fold change) Octoluse Bisphosphate,[3]; metabolite Octoluse Bisphosphate,-5.4193
same,Log2(fold change) PD,[3]; metabolite PD,-1.1341
same,Log2(fold change) PE,[3]; metabolite PE,0.0923
same,Log2(fold change) PEE,[3]; metabolite PEE,0.2942
same,Log2(fold change) PEEK,[3]; metabolite PEEK,-0.4238
same,Log2(fold change) PVNF,[3]; metabolite PVNF,-4.6843
same,Log2(fold change) Pyroglutamic acid,[3]; metabolite Pyroglutamic acid,0.4950
same,Log2(fold change) Pyrophosphate,[3]; metabolite Pyrophosphate,-2.5918
same,Log2(fold change) Ribose-5-phosphate,[3]; metabolite Ribose-5-phosphate,0.0000
same,Log2(fold change) S-adenosyl-L-homocysteine,[3]; metabolite S-adenosyl-L-homocysteine,-0.4383
same,Log2(fold change) S-adenosyl-L-methioninamine,[3]; metabolite S-adenosyl-L-methioninamine,0.0000
same,Log2(fold change) S-adenosyl-L-methionine,[3]; metabolite S-adenosyl-L-methionine,0.0000
same,Log2(fold change) S-methyl-5'-thioadenosine,[3]; metabolite S-methyl-5'-thioadenosine,0.0000
same,Log2(fold change) SD,[3]; metabolite SD,-1.6540
same,Log2(fold change) SDL,[3]; metabolite SDL,0.0000
same,Log2(fold change) SID,[3]; metabolite SID,0.0000
same,Log2(fold change) Sedoheptulose bisphosphate,[3]; metabolite Sedoheptulose bisphosphate,-1.7256
same,Log2(fold change) Thiamine pyrophosphate,[3]; metabolite Thiamine pyrophosphate,0.0000
same,Log2(fold changes) UDP-D-glucose,"[3]; metabolite UDP-D-glucose, log2 fold change",0.0449
same,Log2(fold changes) UDP-D-glucuronate,"[3]; metabolite UDP-D-glucuronate, log2 fold change",-0.4277
same,Log2(fold changes) UDP-N-acetyl-glucosamine,"[3]; metabolite UDP-N-acetyl-glucosamine, log2 fold change",-0.2402
same,Log2(fold changes) UDP,"[3]; metabolite UDP, log2 fold change",-1.4536
same,Log2(fold changes) UMP,"[3]; metabolite UMP, log2 fold change",-0.1145
same,Log2(fold changes) UTP,"[3]; metabolite UTP, log2 fold change",-1.8511
same,Log2(fold change) hydroxyphenylpyruvate,[3]; metabolite hydroxyphenylpyruvate,0.0000
same,Log2(fold change) hydroxyproline/Aminolevulinate,[3]; metabolite hydroxyproline/Aminolevulinate,0.0000
same,Log2(fold change) hypoxanthine,[3]; metabolite hypoxanthine,1.0399
same,Log2(fold change) indole,[3]; metabolite indole,0.2468
same,Log2(fold change) inosine,[3]; metabolite inosine,0.3793
same,Log2(fold change) isoleucine,[3]; metabolite isoleucine,0.0000
same,Log2(fold change) lactate,[3]; metabolite lactate,-0.6725
same,Log2(fold change) leucine,[3]; metabolite leucine,0.0000
same,Log2(fold change) lysine,[3]; metabolite lysine,0.0000
same,Log2(fold change) malate,[3]; metabolite malate,0.0811
same,Log2(fold change) maleic acid,[3]; metabolite maleic acid,0.0000
same,Log2(fold change) methionine,[3]; metabolite methionine,0.0000
same,Log2(fold change) myo-inositol,[3]; metabolite myo-inositol,-2.8253
same,Log2(fold change) nicotinamide mononucleotide,[3]; metabolite nicotinamide mononucleotide,0.0000
same,Log2(fold change) nicotinate,[3]; metabolite nicotinate,1.9078
same,Log2(fold change) ornithine,[3]; metabolite ornithine,0.0801
same,Log2(fold change) orotate,[3]; metabolite orotate,1.9702
same,Log2(fold change) orotidine-5'-phosphate,[3]; metabolite orotidine-5'-phosphate,0.0000
same,Log2(fold change) oxaloacetate,[3]; metabolite oxaloacetate,0.0000
same,Log2(fold change) p-aminobenzoate,[3]; metabolite p-aminobenzoate,0.0000
same,Log2(fold change) p-hydroxybenzoate,[3]; metabolite p-hydroxybenzoate,0.7031
same,Log2(fold change) pantothenate,[3]; metabolite pantothenate,0.0000
same,Log2(fold change) phenylalanine,[3]; metabolite phenylalanine,0.0000
same,Log2(fold change) phenylpyruvate,[3]; metabolite phenylpyruvate,1.2139
same,Log2(fold change) phosphoenolpyruvate,[3]; metabolite phosphoenolpyruvate,0.7560
same,Log2(fold change) prephenate,[3]; metabolite prephenate,0.0000
same,Log2(fold change) proline,[3]; metabolite proline,0.0000
same,Log2(fold change) pyridoxine,[3]; metabolite pyridoxine,0.0000
same,Log2(fold change) pyruvate,[3]; metabolite pyruvate,-0.9980
same,Log2(fold change) riboflavin,[3]; metabolite riboflavin,0.0000
same,Log2(fold change) ribose,[3]; metabolite ribose,0.0000
same,Log2(fold change) ribose-phosphate,[3]; metabolite ribose-phosphate,-0.9470
same,Log2(fold change) ribulose-5-phosphate,[3]; metabolite ribulose-5-phosphate,0.0000
same,Log2(fold change) serine,[3]; metabolite serine,0.0000
same,Log2(fold change) sn-glycerol-3-phosphate,[3]; metabolite sn-glycerol-3-phosphate,0.0194
same,Log2(fold change) succinate/Methylmalonic acid,[3]; metabolite succinate/Methylmalonic acid,0.4365
same,Log2(fold change) succinyl-CoA/methylmalonyl-CoA,[3]; metabolite succinyl-CoA/methylmalonyl-CoA,0.0000
same,Log2(fold change) taurine,[3]; metabolite taurine,0.0000
same,Log2(fold change) thiamine,[3]; metabolite thiamine,0.0000
same,Log2(fold change) threonine/homoserine,[3]; metabolite threonine/homoserine,0.0000
same,Log2(fold change) thymidine,[3]; metabolite thymidine,-1.7681
same,Log2(fold changes) thymine,"[3]; metabolite thymine, log2 fold change",-1.7003
same,Log2(fold changes) trehalose-6-Phosphate,"[3]; metabolite trehalose-6-Phosphate, log2 fold change",0.0000
same,Log2(fold changes) tryptophan,"[3]; metabolite tryptophan, log2 fold change",0.0000
same,Log2(fold changes) tyrosine,"[3]; metabolite tyrosine, log2 fold change",0.0000
same,Log2(fold changes) uridine,"[3]; metabolite uridine, log2 fold change",-0.5758
same,levels of cAMP,[4],decreased
same,levels of the deoxyribonucleotides dAMP and dTMP,[4],increased
same,"nucleoside di- and tri-phosphate levels (GDP, UDP, GTP, dATP, dGTP/ATP, dUTP)",[4],decreased
same,peptide levels (hemoglobin catabolism signature),[4],decreased peptide levels
